Legend:
[1] = test system: Nilaparvata lugens; assay: Insecticidal activities to plant hopper, spraying method; format: in vivo; settings: in vivo
Protocol: (§1) Mortality (%)=(the number of the survival aphis in control group−the number of the survival aphis in the treatment group)/the number of the survival aphis in control group×100%
(2): Insecticidal Activities to Plant hopper
Plant hopper (Nilaparvata lugens), which belongs to Homoptera and has a piercing-sucking mouthpart, is a common insect for agricultural plant. Nilaparvata lugens was tested by spraying method.
Procedure: the test compound was exactly formulated with acetone to form solutions having concentrations of 500, 250, 100, 50, 25, 12.5, 6.25, 3.13, 1.57 and 0.79 ppm, respectively. Aqueous acetone solution was used as control. Each treatment was repeated for 3 tumblers (3 times). Two ml of solution was sprayed uniformly to each tumbler with a mini manual sprayer. 10 insects were introduced to every basin 6 hours before spraying. Three series of experiments were conducted. The number of killed insects was counted after 24 hours to calculate the mortality according to the above mentioned formula.

[2] = test system: Aphis craccivoral; assay: Insecticidal activities to aphids, immersion method; format: in vivo; settings: in vivo
Protocol: (1): Insecticidal Activities to Aphids
Aphis (Aphis craccivoral), which belongs to Homoptera and has a piercing-sucking mouthpart, is a common insect for agricultural plant. Aphis craccivoral was tested by immersion method.
Procedure: exactly weighed various samples were independently added to N,N-dimethylformamide to form 10 g/L stock solutions. The stock solutions were diluted with 0.2 mL/L aqueous Triton X-100 solution to a concentration of 500 ppm. After stably sucking on bean sprout, the wingless adult aphis together with bean sprout were dipped into 500 ppm dilution, taken out after 5 seconds, and the excess dilution was sucked off with bibulous paper. The treated wingless adult aphis was incubated in clean vessel at a constant temperature of 23° C. Each concentration was repeated for 3 times and the control group was treated with 0.2mL/L aqueous Triton X-100 solution. The number of killed aphis was counted after 24 hours and the mortality was to calculated according to the following formula:
as §1

CN=C(C(=Cc1ccc(Cl)o1)[N+](=O)[O-])N(C)Cc1cnc(Cl)s1 [Compound 218]
Nilaparvata lugens Mortality (%) 500 ppm [1]: 86%
Aphis craccivoral Mortality (%) 500 ppm [2]: 88%

CN=C(NCc1ccc(Cl)nc1)C(=Cc1cccs1)[N+](=O)[O-] [Compound 156]
Nilaparvata lugens Mortality (%) 500 ppm [1]: 90%
Aphis craccivoral Mortality (%) 500 ppm [2]: 89%

CCN(C(=NC)C(=Cc1cccs1)[N+](=O)[O-])C(C)c1ccc(Cl)nc1 (stereo not drawn) [Compound 210]
Nilaparvata lugens Mortality (%) 500 ppm [1]: 100%
Aphis craccivoral Mortality (%) 500 ppm [2]: 100%

CCN=C(C(=Cc1ccoc1)[N+](=O)[O-])N(C)Cc1ccc(Cl)nc1 [Compound 171]
Nilaparvata lugens Mortality (%) 500 ppm [1]: 100%
Aphis craccivoral Mortality (%) 500 ppm [2]: 93%

CCN(Cc1cnc(Cl)s1)C(=NC)C(=Cc1ccco1)[N+](=O)[O-] [Compound 225]
Nilaparvata lugens Mortality (%) 500 ppm [1]: 78%
Aphis craccivoral Mortality (%) 500 ppm [2]: 90%

CN=C(NCc1ccc(Cl)nc1)C(=Cc1ccc(Cl)s1)[N+](=O)[O-] [Compound 159]
Nilaparvata lugens Mortality (%) 500 ppm [1]: 67%
Aphis craccivoral Mortality (%) 500 ppm [2]: 55%

CCN(Cc1ccc(Cl)nc1)C(=NC)C(=C(C)c1ccc(Br)o1)[N+](=O)[O-] [Compound 199]
Nilaparvata lugens Mortality (%) 500 ppm [1]: 100%
Aphis craccivoral Mortality (%) 500 ppm [2]: 84%

CN=C(C(=C(C)c1ccc([N+](=O)[O-])s1)[N+](=O)[O-])N(C)C(C)c1ccc(Cl)nc1 (stereo not drawn) [Compound 214]
Nilaparvata lugens Mortality (%) 500 ppm [1]: 100%
Aphis craccivoral Mortality (%) 500 ppm [2]: 98%

CN=C(C(=Cc1ccc[nH]1)[N+](=O)[O-])N(C)Cc1cnc(Cl)s1 [Compound 224]
Nilaparvata lugens Mortality (%) 500 ppm [1]: 52%
Aphis craccivoral Mortality (%) 500 ppm [2]: 32%

CCN=C(C(=Cc1ccc[nH]1)[N+](=O)[O-])N(C)Cc1ccc(Cl)nc1 [Compound 178]
Nilaparvata lugens Mortality (%) 500 ppm [1]: 100%
Aphis craccivoral Mortality (%) 500 ppm [2]: 100%

CN=C(C(=C(C)c1ccc([N+](=O)[O-])o1)[N+](=O)[O-])N(C)C(C)c1ccc(Cl)nc1 (stereo not drawn) [Compound 212]
Nilaparvata lugens Mortality (%) 500 ppm [1]: 100%
Aphis craccivoral Mortality (%) 500 ppm [2]: 96%

CCN(Cc1ccc(Cl)nc1)C(=NC)C(=C(C)c1ccco1)[N+](=O)[O-] [Compound 195]
Aphis craccivoral Mortality (%) 500 ppm [2]: 100%

CCN(Cc1cnc(Cl)s1)C(=NC)C(=Cc1ccc([N+](=O)[O-])s1)[N+](=O)[O-] [Compound 229]
Nilaparvata lugens Mortality (%) 500 ppm [1]: 75%
Aphis craccivoral Mortality (%) 500 ppm [2]: 65%

CCN=C(C(=Cc1ccc([N+](=O)[O-])s1)[N+](=O)[O-])N(C)Cc1ccc(Cl)nc1 [Compound 176]
Nilaparvata lugens Mortality (%) 500 ppm [1]: 100%
Aphis craccivoral Mortality (%) 500 ppm [2]: 86%

CCN(Cc1cnc(Cl)s1)C(=NC)C(=Cc1ccc[nH]1)[N+](=O)[O-] [Compound 231]
Nilaparvata lugens Mortality (%) 500 ppm [1]: 76%
Aphis craccivoral Mortality (%) 500 ppm [2]: 37%

CN=C(C(=Cc1cccs1)[N+](=O)[O-])N(C)Cc1ccc(Cl)nc1 [Compound 166]
Nilaparvata lugens Mortality (%) 500 ppm [1]: 100%
Aphis craccivoral Mortality (%) 500 ppm [2]: 98%

CN=C(C(=Cc1ccoc1)[N+](=O)[O-])N(C)Cc1ccc(Cl)nc1 [Compound 162]
Nilaparvata lugens Mortality (%) 500 ppm [1]: 100%
Aphis craccivoral Mortality (%) 500 ppm [2]: 100%

CCN(Cc1ccc(Cl)nc1)C(=NC)C(=Cc1ccco1)[N+](=O)[O-] [Compound 241]
Nilaparvata lugens Mortality (%) 500 ppm [1]: 76%
Aphis craccivoral Mortality (%) 500 ppm [2]: 68%

CN=C(C(=Cc1ccc(Br)o1)[N+](=O)[O-])N(C)Cc1ccc(Cl)nc1 [Compound 235]
Nilaparvata lugens Mortality (%) 500 ppm [1]: 86%
Aphis craccivoral Mortality (%) 500 ppm [2]: 91%

CN=C(C(=Cc1ccc(Cl)s1)[N+](=O)[O-])N(C)Cc1cnc(Cl)s1 [Compound 223]
Nilaparvata lugens Mortality (%) 500 ppm [1]: 53%
Aphis craccivoral Mortality (%) 500 ppm [2]: 65%

CCN=C(C(=Cc1ccc(Cl)o1)[N+](=O)[O-])N(CC)Cc1ccc(Cl)nc1 [Compound 192]
Nilaparvata lugens Mortality (%) 500 ppm [1]: 100%
Aphis craccivoral Mortality (%) 500 ppm [2]: 97%

CN=C(C(=Cc1ccc(Cl)o1)[N+](=O)[O-])N(C)Cc1ccc(Cl)nc1 [Compound 164]
Nilaparvata lugens Mortality (%) 500 ppm [1]: 100%
Aphis craccivoral Mortality (%) 500 ppm [2]: 100%

CCN=C(C(=Cc1ccco1)[N+](=O)[O-])N(CC)Cc1ccc(Cl)nc1 [Compound 189]
Nilaparvata lugens Mortality (%) 500 ppm [1]: 100%
Aphis craccivoral Mortality (%) 500 ppm [2]: 86%

CN=C(C(=Cc1ccsc1)[N+](=O)[O-])N(C)Cc1cnc(Cl)s1 [Compound 221]
Nilaparvata lugens Mortality (%) 500 ppm [1]: 87%
Aphis craccivoral Mortality (%) 500 ppm [2]: 78%

CN=C(NCc1ccc(Cl)nc1)C(=Cc1ccc([N+](=O)[O-])o1)[N+](=O)[O-] [Compound 153]
Nilaparvata lugens Mortality (%) 500 ppm [1]: 87%
Aphis craccivoral Mortality (%) 500 ppm [2]: 56%

CCN=C(C(=Cc1cccs1)[N+](=O)[O-])N(C)Cc1ccc(Cl)nc1 [Compound 175]
Nilaparvata lugens Mortality (%) 500 ppm [1]: 100%
Aphis craccivoral Mortality (%) 500 ppm [2]: 100%

CCN=C(C(=Cc1ccoc1)[N+](=O)[O-])N(CC)Cc1ccc(Cl)nc1 [Compound 190]
Nilaparvata lugens Mortality (%) 500 ppm [1]: 100%
Aphis craccivoral Mortality (%) 500 ppm [2]: 87%

CN=C(NCc1ccc(Cl)nc1)C(=Cc1ccsc1)[N+](=O)[O-] [Compound 157]
Nilaparvata lugens Mortality (%) 500 ppm [1]: 97%
Aphis craccivoral Mortality (%) 500 ppm [2]: 100%

CN=C(C(=Cc1ccco1)[N+](=O)[O-])N(C)Cc1ccc(Cl)nc1 [Compound 232]
Nilaparvata lugens Mortality (%) 500 ppm [1]: 56%
Aphis craccivoral Mortality (%) 500 ppm [2]: 96%

CN=C(NCc1ccc(Cl)nc1)C(=Cc1ccc([N+](=O)[O-])s1)[N+](=O)[O-] [Compound 158]
Nilaparvata lugens Mortality (%) 500 ppm [1]: 43%
Aphis craccivoral Mortality (%) 500 ppm [2]: 43%

CCN(Cc1ccc(Cl)nc1)C(=NC)C(=Cc1ccc(Cl)s1)[N+](=O)[O-] [Compound 187]
Nilaparvata lugens Mortality (%) 500 ppm [1]: 100%
Aphis craccivoral Mortality (%) 500 ppm [2]: 100%

CCN(Cc1ccc(Cl)nc1)C(=NC)C(=Cc1ccoc1)[N+](=O)[O-] [Compound 180]
Nilaparvata lugens Mortality (%) 500 ppm [1]: 100%
Aphis craccivoral Mortality (%) 500 ppm [2]: 100%

CCN(C(=NC)C(=Cc1ccc(Br)o1)[N+](=O)[O-])C(C)c1ccc(Cl)nc1 (stereo not drawn) [Compound 209]
Nilaparvata lugens Mortality (%) 500 ppm [1]: 100%
Aphis craccivoral Mortality (%) 500 ppm [2]: 88%

CCN(Cc1ccc(Cl)nc1)C(=NC)C(=C(C)c1ccc(Cl)s1)[N+](=O)[O-] [Compound 203]
Nilaparvata lugens Mortality (%) 500 ppm [1]: 100%
Aphis craccivoral Mortality (%) 500 ppm [2]: 100%

CN=C(C(=Cc1ccsc1)[N+](=O)[O-])N(C)Cc1ccc(Cl)nc1 [Compound 167]
Nilaparvata lugens Mortality (%) 500 ppm [1]: 100%
Aphis craccivoral Mortality (%) 500 ppm [2]: 100%

From patent publication US8232407B2, “Nitrogenous heterocyclic compounds with insecticidal activity, and the preparation and use thereof” (East China University of Science and Technology, priority 2008, dated 2012)
